Converted amounts (≈) assume the structure as drawn.
System: Pasteurella multocida
Assay: minimum inhibitory concentration (MIC)
Experimental: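 Broth microdilution MIC (Sensititre BOPO7F bovine plate, CLSI methods) of 19 antimicrobials against field isolates of P. multocida, M. haemolytica, H. somni (deep nasopharyngeal swabs) and E. coli, Enterococcus spp. (rectal swabs) from weaned dairy heifers. Incubation 16-24 h at 35 C. MIC is the lowest concentration preventing visible growth. Values with <= or > lie at the tested range limits. Trimethoprim-sulfamethoxazole is given as the trimethoprim component of a 1:19 mixture.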

CN1C[C@@H]2C[C@H]1CN2c1cc2c(cc1F)c(=O)c(C(=O)O)cn2C1CC1 [Danofloxacin]
Details | minimum inhibitory concentration [µg/mL]
isolate (source animal id): 10 | > 1
isolate (source animal id): 11 | 1 (≈ 2.8 µM)
isolate (source animal id): 12 | > 1
isolate (source animal id): 19 | > 1
isolate (source animal id): 23 | 1 (≈ 2.8 µM)
isolate (source animal id): 26 | > 1
isolate (source animal id): 98 | > 1
isolate (source animal id): 104 | 1 (≈ 2.8 µM)
isolate (source animal id): 115 | ≤ 0.12
isolate (source animal id): 117 | > 1
isolate (source animal id): 118 | > 1
isolate (source animal id): 121 | ≤ 0.12
isolate (source animal id): 124 | > 1
isolate (source animal id): 125 | > 1
isolate (source animal id): 128 | ≤ 0.12
isolate (source animal id): 131 | > 1
isolate (source animal id): 135 | > 1
isolate (source animal id): 136 | ≤ 0.12
isolate (source animal id): 140 | > 1
isolate (source animal id): 144 | 1 (≈ 2.8 µM)
isolate (source animal id): 146 | 1 (≈ 2.8 µM)
isolate (source animal id): 150 | ≤ 0.12
isolate (source animal id): 151 | ≤ 0.12
isolate (source animal id): 153 | 1 (≈ 2.8 µM)
isolate (source animal id): 155 | > 1
isolate (source animal id): 157 | > 1
isolate (source animal id): 160 | ≤ 0.12
isolate (source animal id): 164 | ≤ 0.12
isolate (source animal id): 165 | ≤ 0.12
isolate (source animal id): 167 | ≤ 0.12
isolate (source animal id): 168 | > 1
isolate (source animal id): 169 | ≤ 0.12
isolate (source animal id): 170 | ≤ 0.12
isolate (source animal id): 171 | ≤ 0.12
isolate (source animal id): 172 | ≤ 0.12
isolate (source animal id): 173 | > 1
isolate (source animal id): 174 | ≤ 0.12
isolate (source animal id): 175 | ≤ 0.12
isolate (source animal id): 176 | ≤ 0.12
isolate (source animal id): 177 | ≤ 0.12
isolate (source animal id): 178 | ≤ 0.12
isolate (source animal id): 179 | ≤ 0.12
isolate (source animal id): 182 | ≤ 0.12
isolate (source animal id): 192 | ≤ 0.12
isolate (source animal id): 193 | ≤ 0.12
isolate (source animal id): 195 | ≤ 0.12
isolate (source animal id): 196 | ≤ 0.12
isolate (source animal id): 197 | ≤ 0.12
isolate (source animal id): 198 | > 1
isolate (source animal id): 199 | ≤ 0.12
isolate (source animal id): 200 | ≤ 0.12
isolate (source animal id): 201 | ≤ 0.12
isolate (source animal id): 203 | ≤ 0.12
isolate (source animal id): 204 | ≤ 0.12
isolate (source animal id): 205 | > 1
isolate (source animal id): 206 | ≤ 0.12
isolate (source animal id): 207 | ≤ 0.12
isolate (source animal id): 208 | ≤ 0.12
isolate (source animal id): 209 | ≤ 0.12
isolate (source animal id): 210 | > 1
isolate (source animal id): 213 | ≤ 0.12
isolate (source animal id): 216 | ≤ 0.12
isolate (source animal id): 223 | > 1
isolate (source animal id): 227 | ≤ 0.12
isolate (source animal id): 229 | > 1
isolate (source animal id): 233 | > 1
isolate (source animal id): 234 | > 1
isolate (source animal id): 237 | > 1
isolate (source animal id): 241 | > 1
isolate (source animal id): 245 | > 1
isolate (source animal id): 247 | 1 (≈ 2.8 µM)
isolate (source animal id): 250 | > 1
isolate (source animal id): 254 | > 1
isolate (source animal id): 255 | > 1
isolate (source animal id): 258 | ≤ 0.12
isolate (source animal id): 261 | > 1
isolate (source animal id): 262 | > 1
isolate (source animal id): 269 | 0.25 (≈ 0.7 µM)
isolate (source animal id): 270 | > 1
isolate (source animal id): 274 | > 1
isolate (source animal id): 275 | > 1
isolate (source animal id): 276 | > 1
isolate (source animal id): 277 | 0.25 (≈ 0.7 µM)
isolate (source animal id): 278 | > 1
isolate (source animal id): 279 | 1 (≈ 2.8 µM)
isolate (source animal id): 280 | > 1
isolate (source animal id): 284 | > 1
isolate (source animal id): 285 | > 1
isolate (source animal id): 287 | > 1
isolate (source animal id): 290 | ≤ 0.12
isolate (source animal id): 294 | ≤ 0.12
isolate (source animal id): 295 | ≤ 0.12
isolate (source animal id): 296 | > 1
isolate (source animal id): 307 | ≤ 0.12
isolate (source animal id): 310 | ≤ 0.12
isolate (source animal id): 311 | ≤ 0.12
isolate (source animal id): 312 | > 1
isolate (source animal id): 313 | > 1
isolate (source animal id): 315 | > 1
isolate (source animal id): 316 | > 1
